# How the values were obtained:
# [1] = tested on: Ishikawa (endometrial) cancer cell line; assay: CellTiter-Glo antiproliferative activity, Ishikawa cell line; format: cell-based, human; details: 72 h exposure, in the presence of 10 nM estradiol
# Source text: Numerous substituted THIQs were systematically synthesized employing molecular design and structure activity relationship studies (Suresh et al., (2014) Lett. Drug Design & Discov. 11: 428-436; Gangapuram et al., (2014) J. Cancer Sci. Ther. 6: 161-169). The compounds' cytotoxic effects on MCF-7 (estrogen receptor positive breast cancer) cell lines, MDA-MB-231 (estrogen receptor negative breast cancer) cell lines and Ishikawa cell lines using CellTiter-Glo (CTG) luminescent cell viability essay were studied. The tests were done on different concentrations of the compounds ranging from 0.01 to 100,000 nM on 5000 MCF-7 cells/well, on 5000 MDA-MB-231 cells/well and on 5000 Ishikawa cells/well. Drug exposed cells were incubated at 37° C. for three days followed by CTG assay. Then IC50 values were generated from Graph Pad Prism 4. […]
# (§1) The antiproliferative activities of substituted tetrahydroisoquinolines 2a-2m, 3a-3l and 4a-4f were evaluated according to the procedure reported previously (Crouch et al., (1993) J. Immunol. Methods 160: 81-88).
# (§2) Human MCF-7 and MDA-MB-231 breast cancer cell lines were purchased from the NCI. The human Ishikawa endometrial cancer cell line was purchased from Sigma Aldrich. All three cell lines were cultured in phenol red-free RPMI-1640 (Hyclone) (500 mL) supplemented with L-glutamine-dipeptide (Hyclone) (5 mL), and 10% fetal bovine serum (Atlanta Biologicals) (50 mL).
# (§3) The cell lines were cultured and treated with compounds under study including the standard TAM ranging from 0.01 nM to 100,000 nM concentration in the presence of 10 nM estradiol using the previous reported method (Suresh et al., (2014) Lett. Drug Des. Discov. 11: 428-436).
# (§4) The amount of ATP is determined using a system based on luciferase and D-luciferin resulting in light generation.
# [2] = tested on: MCF-7 (ER positive breast cancer cell line); assay: CellTiter-Glo antiproliferative activity, MCF-7 cell line; format: cell-based, human
# Source text: (§5) Numerous substituted THIQs were systematically synthesized employing molecular design and structure activity relationship studies (Suresh et al., (2014) Lett. Drug Design & Discov. 11: 428-436; Gangapuram et al., (2014) J. Cancer Sci. Ther. 6: 161-169). The compounds' cytotoxic effects on MCF-7 (estrogen receptor positive breast cancer) cell lines, MDA-MB-231 (estrogen receptor negative breast cancer) cell lines and Ishikawa cell lines using CellTiter-Glo (CTG) luminescent cell viability essay were studied. The tests were done on different concentrations of the compounds ranging from 0.01 to 100,000 nM on 5000 MCF-7 cells/well, on 5000 MDA-MB-231 cells/well and on 5000 Ishikawa cells/well. Drug exposed cells were incubated at 37° C. for three days followed by CTG assay. Then IC50 values were generated from Graph Pad Prism 4.
# (§6) Chemistry: Several substituted tetrahydroisoquinolines 2d-2m, 3h, 3k, 3l, and 4a-4f were prepared according to three different procedures as shown in Schemes 1, 2 and 3 (FIGS. 2-4). […] The aminating agent 10 was prepared using a reported procedure (Tamura et al., (1972) J. Org. Chem. 40: 4133-4135). The amino salts of ring substituted 2-aminoisoquinolinium mesitylenesulfonates of general structure 11 used in the present study were prepared by the reaction of substituted isoquinolines and the aminating agent 10 as previously reported (Gangapuram et al., (2014) J. Cancer Sci. Ther. 6: 161-169). […] The aminating agent 13 was prepared using a reported procedure (Legault & Charette (2003) J. Org. Chem. 68: 7119-7122). The amino salts of ring substituted 2-aminoisoquinolinium compounds of general structure 14 were obtained with the reaction of the substituted isoquinolines and the aminating agent 13 in CH3CN heated at 50° C. for 24 hours. Without further purification, the salts were used to prepare the N-ylides by reaction with substituted acyl/sulfonyl chlorides. […] N-Oxidation of commercially available ring substituted THIQs followed by the reduction of the NO group using standard zinc/acetic acid led to the synthesis of N-amino THIQs.
# as §1, §2, §3, §4
# [3] = tested on: MDA-MB-231 (ER negative breast carcinoma cell line); assay: CellTiter-Glo antiproliferative activity, MDA-MB-231 cell line; format: cell-based, human; details: 72 h exposure, in the presence of 10 nM estradiol
# Source text: as §5, §6, §1, §2, §3
# [4] = tested on: MCF-7, MDA-MB-231, and Ishikawa cell lines; assay: Antiproliferative activity, summary statements over the three cell lines; format: cell-based, human; details: MCF-7, MDA-MB-231 and Ishikawa cell lines together
# Source text: as §5, §6, §1, §2, §3
# [5] = tested on: microtubule network; details: Gangapuram et al. (2014); cited from earlier work
structure (smiles),measurement,setting,value
CCc1ccc(C(=O)NN2CCc3ccc(O)cc3C2)cc1 [Compound 2b],IC50 against Ishikawa cell line,[1],0.08 µg/mL
same,IC50 against MCF-7 cell line,"[2]; 72 h exposure, in the presence of 10 nM estradiol",0.2 µg/mL
same,antiproliferative activity against MCF-7 cell line in words,[2]; based on IC50 value,very active
same,IC50 against MDA-MB-231 cell line,[3],0.13 µg/mL
same,antiproliferative activity in words,[4],more active than the lead structure (1)
same,microtubule-destabilizing activity,[5],potent microtubule-destabilizing agent

# From US10730840B2, “Substituted tetrahydroisoquinoline ethylbenzamide anti-cancer agents” (Florida A&M University, priority 2017, dated 2020)
